Test results: US8911705B2, “Diagnostic substance and method for the analysis of metabolism processes in the brain” (Leibniz-Institut fuer Neurobiologie Stiftung des …, priority 2005, dated 2014)

Tests used:
experimental animals = settings: high thallium acetate doses needed for the method; animals sacrificed 15 minutes after administration; cited from earlier work
[1] = system: brain of rat after focal cerebral ischemia
From the text: Thallium is a potassium tracer and can detect changes in potassium metabolism, as occur, e.g., in brain infarcts, brain tumors, or degenerative diseases.
Shown are frontal sections in the plane of the anterior commissure (A, D) and images of the same sections (B, E).
The thallium is taken up essentially by the sodium-potassium pump and transport systems regulated by it and is thus energy-dependent. […] Scale bar in A: 500 μm, in B: 50 μm, in C: 25 μm, in D: 10 μm, in E: 25 μm and in F: 100 μm.

brain = settings: cited from earlier work

Row | Compound | toxicity of the thallium dose used (experimental animals) | staining intensity (thallium) in infarct core ([1]; 15 minutes after focal cerebral ischemia (hyperacute stage), infarct core) | staining intensity (thallium) in zone surrounding infarct core ([1]; 15 minutes after focal cerebral ischemia, zone surrounding core vs contralateral side) | differences in thallium distribution ipsilateral and contralateral to the occluded vessel ([1]; 7 days after focal cerebral ischemia (late time point)) | thallium staining of astrocytes in the infarct core ([1]; hyperacute stage of cerebral ischemia, astrocytes) | thallium detection in neurons of the infarct core ([1]; hyperacute stage of cerebral ischemia, neurons) | cerebral uptake (brain) | decomposition in the brain (brain) | retention in the brain (brain)
1 | CC(=O)[O-].[Tl+] [thallium acetate] | deadly |  |  |  |  |  |  |  | 
2 | CCN(CC)C(=S)[S][201Tl] [Tl-DDC, thallium-201 diethyldithiocarbamate] |  | clearly reduced staining intensity | clearly lower than in the undamaged contralateral side | less pronounced | intensively stained | cannot be detected | good cerebral uptake | decomposes spontaneously in the brain | 
3 | technetium-99m-diethyldithiocarbamate [^99 mTc-DDC] |  |  |  |  |  |  | good cerebral uptake | essentially lower rate of decomposition in the brain | retained there to a lesser extent
